≈ marks a conversion by molar mass, not a printed value.
Tests used:
[1] = Tissue accumulation of Compound 1 at the site of infection (infected skin tissue); settings: mouse, po, 50 mg/kg
H. influenzae = assay: MIC by micro-dilution method, H. influenzae isolates; type: cell-based, Haemophilus influenzae; settings: for MIC H. influenzae 33929: H. influenzae isolate 33929; for MIC H. influenzae 33929 / MIC H. influenzae 49247: examples of U.S. Pat. No. 6,878,691 for reference; for MIC H. influenzae 49247: H. influenzae isolate 49247
Description: Susceptibility tests can be used to quantitatively measure the in vitro activity of an antimicrobial agent against a given bacterial isolate. Compounds are tested for in vitro antibacterial activity by a micro-dilution method. Minimal Inhibitory Concentration (MIC) is determined in 96 well microtiter plates utilizing the appropriate broth medium for the observed bacterial isolates. […] The diluted compounds (2 μl/well) are then transferred into sterile, uninoculated medium (0.2 mL) by use of a 96 fixed tip-pipetting station. The inoculum for each bacterial strain is standardized to approximately 5×10^5 CFU/mL by optical comparison to a 0.5 McFarland turbidity standard. The plates are inoculated with 10 μl/well of adjusted bacterial inoculum. The 96 well plates are covered and incubated at 35+/−2° C. for 24 hours in ambient air environment. Following incubation, plate wells are visually examined by Optical Density measurement for the presence of growth (turbidity). The lowest concentration of an antimicrobial agent at which no visible growth occurs is defined as the MIC.
All in vitro testing follows the guidelines described in the Approved Standards M7-A7 protocol, published by the Clinical Laboratory Standards Institute (CLSI).

MRSA = assay: MIC by micro-dilution method, MRSA isolates; type: cell-based, Staphylococcus aureus; settings: MRSA isolate 33591; examples of U.S. Pat. No. 6,878,691 for reference
How it was run: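 CLSI M7-A7 broth microdilution with inoculum about 5×10^5 CFU/mL, in broth suited to each isolate. Plates incubated 24 h at 35±2 °C in ambient air. MIC is the lowest concentration without visible growth, judged by optical density.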

Row | Structure (SMILES) | MIC H. influenzae 33929 (H. influenzae) [µg/mL] | MIC H. influenzae 49247 (H. influenzae) [µg/mL] | MIC MRSA 33591 (MRSA) [µg/mL] | MIC (H. influenzae; H. influenzae 33929) [µg/mL] | MIC (H. influenzae; H. influenzae 49247) [µg/mL] | further results
1 | CCC(=O)/N=C1\[C@H](C)C[C@@]2(C)OC/C(=N/OCc3ccc(-c4nc(N)cs4)cn3)CO[C@H]([C@H]1C)[C@](C)(O)[C@@H](CC)OC(=O)[C@@](C)(F)C(=O)[C@H](C)[C@H]2O[C@@H]1O[C@H](C)C[C@H](N(C)C)[C@H]1O [Compound 1] |  |  |  |  |  | AUC(0-inf) ([1]; infected skin abscess): 617000 µg·h/mL; AUC(0-t) ([1]; infected skin abscess): 257000 µg·h/mL; Cmax ([1]; infected skin abscess): 9030 µg/mL; AUC(0-inf) ([1]; plasma): 24500 µg·h/mL; AUC(0-t) ([1]; plasma): 24400 µg·h/mL; Cmax ([1]; plasma): 5120 µg/mL; AUC(0-inf) ([1]; uninfected skin): 66600 µg·h/mL; AUC(0-t) ([1]; uninfected skin): 54600 µg·h/mL; Cmax ([1]; uninfected skin): 3800 µg/mL
2 | CC[C@H]1OC(=O)[C@@](C)(F)C(=O)[C@H](C)[C@@H](O[C@@H]2O[C@H](C)C[C@H](N(C)C)[C@H]2O)[C@@]2(C)C[C@@H](C)C(=NC(C)=O)[C@H](C)[C@@H](OC/C(=N\OCc3ccc(-c4cnccn4)s3)CO2)[C@]1(C)O [Compound 141, reference compound] | 8 (≈ 9.13 µM) | 8 (≈ 9.13 µM) | 32 (≈ 36.5 µM) |  |  | 
3 | CC[C@H]1OC(=O)[C@@](C)(F)C(=O)[C@H](C)[C@@H](O[C@@H]2O[C@H](C)C[C@H](N(C)C)[C@H]2O)[C@@]2(C)C[C@@H](C)C(=NC(C)=O)[C@H](C)[C@@H](OC/C(=N\OCc3ccc(-c4cccc(N)n4)s3)CO2)[C@]1(C)O [Compound 173, reference compound] | 4 (≈ 4.49 µM) | 4 (≈ 4.49 µM) | 4 (≈ 4.49 µM) |  |  | 
4 | CC[C@H]1OC(=O)[C@H](C)C(=O)[C@H](C)[C@@H](O[C@@H]2O[C@H](C)C[C@H](N(C)C)[C@H]2O)[C@@]2(C)C[C@@H](C)C(=NC(C)=O)[C@H](C)[C@@H](OC/C(=N\OCc3ccc(-c4ncccn4)cc3)CO2)[C@]1(C)O [Compound 193, reference compound] | 8 (≈ 9.39 µM) | 8 (≈ 9.39 µM) | 64 (≈ 75.1 µM) |  |  | 
5 | CCNC(=O)c1cccc(-c2cc(CO/N=C3\CO[C@@H]4[C@@H](C)C(=NC(C)=O)[C@H](C)C[C@@](C)(OC3)[C@H](O[C@@H]3O[C@H](C)C[C@H](N(C)C)[C@H]3O)[C@@H](C)C(=O)[C@@H](C)C(=O)O[C@H](CC)[C@@]4(C)O)on2)n1 [Compound 195, reference compound] | 32 (≈ 35 µM) | 32 (≈ 35 µM) | >64 |  |  | 
6 | CC[C@H]1OC(=O)[C@H](C)C(=O)[C@H](C)[C@@H](O[C@@H]2O[C@H](C)C[C@H](N(C)C)[C@H]2O)[C@@]2(C)C[C@@H](C)C(=NC(C)=O)[C@H](C)[C@@H](OC/C(=N\OCc3ccc(-c4cccs4)nc3)CO2)[C@]1(C)O [Compound 205, reference compound] | 4 (≈ 4.67 µM) | 8 (≈ 9.33 µM) | >64 |  |  | 
7 | CC[C@H]1OC(=O)[C@H](C)C(=O)[C@H](C)[C@@H](O[C@@H]2O[C@H](C)C[C@H](N(C)C)[C@H]2O)[C@@]2(C)C[C@@H](C)C(=NC(C)=O)[C@H](C)[C@@H](OC/C(=N\OCc3ccc(-c4nccs4)nc3)CO2)[C@]1(C)O [Compound 212, reference compound] | 4 (≈ 4.66 µM) | 8 (≈ 9.32 µM) | 64 (≈ 74.6 µM) |  |  | 
8 | CC[C@H]1OC(=O)[C@@](C)(F)C(=O)[C@H](C)[C@@H](O[C@@H]2O[C@H](C)C[C@H](N(C)C)[C@H]2O)[C@@]2(C)C[C@@H](C)C(=NC(C)=O)[C@H](C)[C@@H](OC/C(=N\OCc3ccc(-n4cccn4)nc3)CO2)[C@]1(C)O [Compound 214, reference compound] | 4 (≈ 4.66 µM) | 8 (≈ 9.31 µM) | 64 (≈ 74.5 µM) |  |  | 
9 | CC[C@H]1OC(=O)[C@@](C)(F)C(=O)[C@H](C)[C@@H](O[C@@H]2O[C@H](C)C[C@H](N(C)C)[C@H]2O)[C@@]2(C)C[C@@H](C)C(=NC(C)=O)[C@H](C)[C@@H](OC/C(=N\OCc3ccc(-c4csnn4)cc3)CO2)[C@]1(C)O [Compound 219, reference compound] | 4 (≈ 4.57 µM) | 4 (≈ 4.57 µM) | 32 (≈ 36.5 µM) |  |  | 
10 | CC[C@H]1OC(=O)[C@H](C)C(=O)[C@H](C)[C@@H](O[C@@H]2O[C@H](C)C[C@H](N(C)C)[C@H]2O)[C@@]2(C)C[C@@H](C)C(=NC(C)=O)[C@H](C)[C@@H](OC/C(=N\OCc3ccc(-c4cccc(N)n4)nc3)CO2)[C@]1(C)O [Compound 227, reference compound] | 4 (≈ 4.61 µM) | 4 (≈ 4.61 µM) | 32 (≈ 36.9 µM) |  |  | 
11 | CC[C@H]1OC(=O)[C@H](C)C(=O)[C@H](C)[C@@H](O[C@@H]2O[C@H](C)C[C@H](N(C)C)[C@H]2O)[C@@]2(C)C[C@@H](C)C(=NC(C)=O)[C@H](C)[C@@H](OC/C(=N\OCc3ccc(-c4nnc(N)s4)nc3)CO2)[C@]1(C)O [Compound 234, reference compound] | 4 (≈ 4.58 µM) | 4 (≈ 4.58 µM) | >64 |  |  | 
12 | CC[C@H]1OC(=O)[C@H](C)C(=O)[C@H](C)[C@@H](O[C@@H]2O[C@H](C)C[C@H](N(C)C)[C@H]2O)[C@@]2(C)C[C@@H](C)C(=NC(C)=O)[C@H](C)[C@@H](OC/C(=N\OCc3cnc(-n4cccn4)c(F)c3)CO2)[C@]1(C)O [Compound 259, reference compound] | 8 (≈ 9.31 µM) | 8 (≈ 9.31 µM) | >64 |  |  | 
13 | CCC1OC(=O)C(C)C(=O)C(C)C(OC2OC(C)CC(N(C)C)C2O)C2(C)CC(C)C(=O)C(C)C(OCC(=NOCc3ccn(-c4cccc(N)n4)n3)CO2)C1(C)O (centres unmarked) [Example 58] |  |  |  | 2 (≈ 2.45 µM) | 2 (≈ 2.45 µM) | 
14 | CCC1OC(=O)C(C)(F)C(=O)C(C)C(OC2OC(C)CC(N(C)C)C2O)C2(C)CC(C)C(=NC(C)=O)C(C)C(OCC(=NOCc3ccn(-c4cccc(N)n4)n3)CO2)C1(C)O (centres unmarked) [Example 59] |  |  |  | 2 (≈ 2.29 µM) | 2 (≈ 2.29 µM) | 
15 | CCC1OC(=O)C(C)C(=O)C(C)C(OC2OC(C)CC(N(C)C)C2O)C2(C)CC(C)C(=O)C(C)C(OCC(=NOCc3ccc(-c4coc(N)n4)nc3)CO2)C1(C)O (centres unmarked) [Example 60] |  |  |  | 2 (≈ 2.45 µM) | 2 (≈ 2.45 µM) | 
16 | CCC1OC(=O)C(C)C(=O)C(C)C(OC2OC(C)CC(N(C)C)C2O)C2(C)CC(C)C(=O)C(C)C(OCC(=NOCc3ccc(-c4nc(N)ns4)nc3)CO2)C1(C)O (centres unmarked) [Example 61] |  |  |  | 2 (≈ 2.4 µM) | 2 (≈ 2.4 µM) | 
17 | CCC1OC(=O)C(C)C(=O)C(C)C(OC2OC(C)CC(N(C)C)C2O)C2(C)CC(C)C(=O)C(C)C(OCC(=NOCc3ccc(-c4noc(N)n4)nc3)CO2)C1(C)O (centres unmarked) [Example 62] |  |  |  | 2 (≈ 2.45 µM) | 2 (≈ 2.45 µM) | 
18 | CCC1OC(=O)C(C)C(=O)C(C)C(OC2OC(C)CC(N(C)C)C2O)C2(C)CC(C)C(=O)C(C)C(OCC(=NOCc3ncc(-c4cccc(N)n4)s3)CO2)C1(C)O (centres unmarked) [Example 63] |  |  |  | 2 (≈ 2.4 µM) | 1 (≈ 1.2 µM) | 
19 | CCC1OC(=O)C(C)(F)C(=O)C(C)C(OC2OC(C)CC(N(C)C)C2O)C2(C)CC(C)C(=O)C(C)C(OCC(=NOCc3cnc(-c4nc(N)ns4)cn3)CO2)C1(C)O (centres unmarked) [Example 64] |  |  |  | 2 (≈ 2.35 µM) | 1 (≈ 1.17 µM) | 
20 | CCC(=O)N=C1C(C)CC2(C)OCC(=NOCc3cnc(-c4cccc(N)n4)o3)COC(C1C)C(C)(O)C(CC)OC(=O)C(C)(F)C(=O)C(C)C2OC1OC(C)CC(N(C)C)C1O (centres unmarked) [Example 65] |  |  |  | 4 (≈ 4.5 µM) | 1 (≈ 1.12 µM) | 
21 | CCC(=O)N=C1C(C)CC2(C)OCC(=NOCc3cnc(-c4nsc(N)n4)cn3)COC(C1C)C(C)(O)C(CC)OC(=O)C(C)(F)C(=O)C(C)C2OC1OC(C)CC(N(C)C)C1O (centres unmarked) [Example 67] |  |  |  | 4 (≈ 4.41 µM) | 2 (≈ 2.2 µM) | 
22 | CCC1OC(=O)C(C)C(=O)C(C)C(OC2OC(C)CC(N(C)C)C2O)C2(C)CC(C)C(=O)C(C)C(OCC(=NOCc3cnc(-c4nsc(N)n4)cn3)CO2)C1(C)O (centres unmarked) [Example 68] |  |  |  | 2 (≈ 2.4 µM) | 2 (≈ 2.4 µM) | 
23 | CCC1OC(=O)C(C)C(=O)C(C)C(OC2OC(C)CC(N(C)C)C2O)C2(C)CC(C)C(=NC(C)=O)C(C)C(OCC(=NOCc3cnc(-c4cccc(N)n4)o3)CO2)C1(C)O (centres unmarked) [Example 70] |  |  |  | 2 (≈ 2.33 µM) | 2 (≈ 2.33 µM) | 
24 | CCC1OC(=O)C(C)C(=O)C(C)C(OC2OC(C)CC(N(C)C)C2O)C2(C)CC(C)C(=O)C(C)C(OCC(=NOCc3csc(-c4cccc(N)n4)n3)CO2)C1(C)O (centres unmarked) [Example 71] |  |  |  | 2 (≈ 2.4 µM) |  | 

From patent publication US20130165641A1, “6,11-BRIDGED BIARYL MACROLIDES” (Enanta Pharmaceuticals, Inc., priority 2007, published 2013)
